What was measured:
[1] = molecular target: T1, GPR40 (Homo sapiens, UniProt O14842); experiment: Inositol phosphate accumulation assay in A9 cells stably expressing GPR40 (A9_GPR40); assay type: cell-based; conditions: inositol phosphate assay
T1 construct: expressed in transfected cells; host or cells: CHO cell line stably expressing GPR40 and aequorin
Experimental: (§1) GPR40 aequorin, plasmid titration, and inositol phosphate assays were performed as described. For aequorin assays, in addition to transient transfection of GPR40 into CHO cells, a CHO cell line stably expressing both GPR40 and aequorin was generated. GLUTag cells were obtained under a license from Dr. Daniel Drucker, University of Toronto. Competition binding experiments were performed using membranes prepared from A9_GPR40 cells. […] Competition binding assays were carried out in 20 mM Hepes pH 7.5, 5 mM MgCl2, 100 mM NaCl and 0.1% (w/v) free fatty acid BSA and bound radioligand was collected on 96-well GF/C filter plates.
(A) Structure of selected GPR40 agonists. (B) GPR40 agonists were tested in parallel in vitro in an inositol phosphate accumulation assay in A9 cells stably expressing GPR40. (TIF) Click here for additional data file.

[2] = molecular target: T1, GPR40; experiment: Competition binding with 3H-AM-1638 on A9_GPR40 membranes; conditions: unlabelled competitor
Experimental: as §1

[3] = tested on: HF/STZ mice; experiment: Single oral dose without glucose challenge in HF/STZ mice: GLP-1, insulin, glucose, GIP; assay type: in vivo, mouse; conditions: HF/STZ mice, single oral dose
Experimental: The increase in insulin secretion by GPR40 agonists is due to direct stimulation of GPR40 receptors on pancreatic β-cells, but may also be derived from stimulation of the gut peptides GLP-1 and GIP, which subsequently act on the GLP-1 and GIP G protein-coupled receptors found on pancreatic β-cells. […] No glucose challenge was performed in order to isolate the effects of the compounds alone.
(§2) All procedures on animals were approved by the Amgen San Francisco Institutional Animal Care and Use Committee (approved protocols #11–04 and #2007–00106). The Amgen San Francisco vivarium is an AAALAC accredited facility. Animals were housed under a 12-h light, 12-h dark cycle (lights-on 0600 h and lights-off 1800 h) and were allowed ad libidum access to chow and water. The HF/STZ mice were established as previously described. Briefly, C57BL/6j mice (Jackson labs) at 4 weeks of age were fed a high-fat diet (BioServ S1850, 35% fat) for 3-weeks and then injected with 95 mg/kg streptozotocin (Sigma) ip to induce beta cell dysfunction. The animals continued on the same high fat diet for 3–6 additional weeks. Animals were then randomized into treatment groups based on fasting blood glucose and insulin measures. NONcNZO10/LtJ (RCS10) male mice (Jackson labs) were used at 12-weeks of age and randomized for treatment based on fasting glucose levels. For OGTT experiments, drugs were formulated in 1% HPMC, 10% HPbCD, 1% Tween-80 and dosed via oral gavage. Glucose was administered at 2 g/kg 1-hour post drug dose by oral gavage.

[4] = tested on: mouse islets; experiment: Mouse islet perifusion assay; assay type: cell-based; conditions: 10 µM compound
Experimental: (§3) Mouse islets were isolated and tested for stimulation of GSIS as described. Human islets were purchased from Prodo labs or were obtained from the National Institutes of Health and Juvenile Diabetes Research Foundation supported Islet Cell Resource Consortium (http://icr.coh.org). Islet inositol phosphate assays were performed on islets cells that had been dispersed with trypsin. 10,000 islet cells were plated/well of a 96-well plate and were loaded with ^3H-myo-inositol (0.5 µCi/well) in RPMI overnight prior to treatment. The next day, response to different stimuli was tested in HBSS containing 10 mM LiCl and 0.1% HSA (w/v) for 1 hour at 37°C. Accumulated ^3H-inositol phosphate was measured after capture to SPA beads. Islet perifusion experiments were performed on mouse islets loaded into a Brandel Suprafusion system. Twenty islets were size-matched and loaded per perifusion chamber. Islets were perifused in KRBH containing, sequentially, 3 mM glucose, then 3 mM glucose containing 10 µM drug, 16.7 mM glucose containing 10 µM drug and finally returned to 3 mM glucose containing 10 µM drug. Insulin was measured using an insulin ELISA kit (Alpco). Fetal rat intestinal cells were isolated from e19-day old fetuses of pregnant Sprague-Dawley rats. Briefly, fetal intestines were isolated and digested in HBSS buffer containing 0.5 mg/ml collagenase (Sigma), 0.5 mg/ml of hyaluronidase (Sigma) and 0.05 mg/ml of deoxyribonuclease I (Roche) for 30 minutes at 37°C. The digestion was quenched using HBSS containing 15% FBS. Fetal rat intestinal cells were washed and cultured overnight in DMEM containing 5% FBS in 96-well plates. To test for secretion of GLP-1 and GIP in response to treatments, we incubated cells for 1 hour with treatments in KRBH buffer containing 0.05% BSA (w/v). GLP-1 and GIP1 secreted into the media was measured using ELISA kits specific for GLP-1 (Linco) or GIP (Millipore).

[5] = tested on: GLUTag cells; experiment: Inositol phosphate accumulation assay in GLUTag enteroendocrine L-cell line; assay type: cell-based, mouse
Experimental: Increased GLP-1 and GIP would be expected to have additional benefits in type 2 diabetics. […] We tested for potential effects on incretin secretion in vitro by using cells isolated from fetal rat intestines.
as §1

[6] = tested on: wild type and GPR40 knockout mice; experiment: OGTT and GLP-1 secretion in wild type and GPR40 null mice; assay type: in vivo, mouse; conditions: wild type mice
Experimental: as §2
For all glucose tolerance tests, glucose and insulin measurements were taken from tail vein samples at various time-points. Blood glucose values were measured on an Accu-Chek glucometer (Roche Diagnostics), while insulin levels were determined using an ELISA (Alpco).

[7] = molecular target: PPAR alpha (Homo sapiens, UniProt Q07869); experiment: PPAR-alpha luciferase reporter assay; assay type: cell-based; conditions: concentrations up to 10 µM
Chain of PPAR alpha (Q07869 whole entry, species assumed): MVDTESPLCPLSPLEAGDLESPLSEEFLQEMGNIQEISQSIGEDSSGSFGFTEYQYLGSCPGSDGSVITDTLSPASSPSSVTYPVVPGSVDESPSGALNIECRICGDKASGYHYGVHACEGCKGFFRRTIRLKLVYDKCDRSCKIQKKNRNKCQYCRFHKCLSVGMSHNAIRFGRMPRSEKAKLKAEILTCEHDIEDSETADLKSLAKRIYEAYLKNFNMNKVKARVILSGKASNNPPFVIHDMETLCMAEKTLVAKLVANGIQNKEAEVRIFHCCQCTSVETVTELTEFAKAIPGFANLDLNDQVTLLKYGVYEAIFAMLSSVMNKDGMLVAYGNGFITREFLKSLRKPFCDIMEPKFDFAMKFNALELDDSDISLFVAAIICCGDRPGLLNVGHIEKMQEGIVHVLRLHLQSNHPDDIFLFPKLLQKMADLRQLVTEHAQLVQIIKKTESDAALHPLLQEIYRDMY

[8] = rat, mouse, beagle dog and cynomolgus monkey; cited from earlier work
[9] = molecular target: T1, GPR40; experiment: Aequorin Ca2+ flux assay in CHO cell line stably expressing GPR40; assay type: cell-based; conditions: CHO-GPR40 stable cell line
Experimental: Since GPR40 agonists with greater intrinsic activity may have improved anti-diabetic properties, we focused our efforts to discover potent synthetic full agonists.
as §1

[10] = tested on: mouse islets; experiment: GSIS assay in mouse islets; assay type: cell-based; conditions: 16.7 mM glucose
Experimental: as §3

[11] = tested on: human islet cells; experiment: Inositol phosphate assay with dispersed human islet cells; assay type: cell-based
Experimental: as §3, with “Briefly, fetal intestines were isolated and digested in HBSS buffer containing 0.5 mg/ml collagenase (Sigma), 0.5 mg/ml of hyaluronidase (Sigma) and 0.05 mg/ml of deoxyribonuclease I (Roche) for 30 minutes at 37°C. The digestion was quenched using HBSS containing 15% FBS. Fetal rat intestinal cells were washed and cultured overnight in DMEM containing 5% FBS in 96-well plates. To test for secretion of GLP-1 and GIP in response to treatments, we incubated cells for 1 hour with treatments in KRBH buffer containing 0.05% BSA (w/v).” left out

T1 sequence (O14842 whole entry): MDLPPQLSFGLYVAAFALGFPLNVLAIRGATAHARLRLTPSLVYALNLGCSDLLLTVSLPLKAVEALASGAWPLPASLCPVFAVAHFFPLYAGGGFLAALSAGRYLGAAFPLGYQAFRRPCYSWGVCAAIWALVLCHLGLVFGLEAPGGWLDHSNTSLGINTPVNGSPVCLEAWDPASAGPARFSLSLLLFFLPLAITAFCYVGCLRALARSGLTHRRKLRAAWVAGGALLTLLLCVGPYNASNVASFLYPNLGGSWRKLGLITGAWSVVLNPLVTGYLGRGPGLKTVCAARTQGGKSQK

intrinsic activity, fold greater than AMG 837 [1]: ~2 fold | EC50 ([1]; 1-hour accumulation, read-out: Half-maximal potency): 13.1 ± 1.1 nM | displacement of 3H-AM-1638 [2]: displaced ^3H-AM-1638 | activation of PPAR alpha [7]: did not activate | EC50 [9]: 160 ± 10 nM | Emax ([9]; compared to natural free fatty acid ligands, read-out: Emax (efficacy)): 100% | EC50 ([10]; read-out: EC50 for potentiation of insulin secretion): 990 ± 150 nM
SMILES: COc1ccc(F)c(-c2ccc(COc3cccc([C@@H](CC(=O)O)C4CC4)c3)cc2C2=CCCC2(C)C)c1 [AM-1638]
GIP secretion [3]: stimulated secretion of GIP | blood glucose levels ([3]; no glucose challenge): stabilized blood glucose levels | plasma GLP-1 and insulin levels ([3]; no glucose challenge, compared with AMG 837): markedly greater increase | insulin stimulation compared to vehicle control ([4]; 3 mM glucose): neither AMG 837 nor AM-1638 stimulated insulin | insulin secretion ([4]; 16.7 mM glucose): increased both first and second phase insulin secretion | inositol phosphate accumulation, fold increase compared to AMG 837 [5]: 3–4 fold | improvement in pre- and post-challenge glucose levels ([6]; OGTT, single oral dose): evident in wild type | plasma GLP-1 levels ([6]; single dose 100 mg/kg): elicited an increase | pharmacokinetic properties [8]: suitable for oral dosing | increase of insulin secretion, fold from that of AMG 837 [10]: 3–4 fold | IP production efficacy, fold greater than AMG 837 [11]: 8–10 ×
